Results as given in patent publication US20040024215A1, “Benzamide derivatives and their use as apob-100 and mtp inhibitors” (priority 2000, published 2004).

Assays:
[1] = target: human MTP (Homo sapiens, UniProt P55157); test: human MTP activity assay (SPA, 3H-triolein transfer between liposomes); assay type: biochemical; conditions: 3H-triolein transfer from donor to acceptor liposomes, 25 min incubation at 37° C., streptavidin-SPA beads
Description: The ability of the compounds of this invention to inhibit human MTP activity is measured by an in vitro assay where MTP tranfers 3H-triolein between phosphatidylcholine liposomes. The specificity of the compounds of the invention is established by comparing the effects on apoB-100 and apoprotein A-1 production. A specificity of at least 100 is preferred.
The human MTP activity assay was established using SPA technology. Donor liposomes were prepared with 3H-triolein and phosphatidylcholine, while acceptor liposomes contained biotinylated phosphatidylethanolamine and phosphatidylcholine. The MTP-mediated 3H-triolein transfer onto acceptor liposomes was allowed by a 25 min incubation at 37° C., and quantified by the addition of streptavidin-SPA beads.

Sequence of human MTP (P55157 19-894): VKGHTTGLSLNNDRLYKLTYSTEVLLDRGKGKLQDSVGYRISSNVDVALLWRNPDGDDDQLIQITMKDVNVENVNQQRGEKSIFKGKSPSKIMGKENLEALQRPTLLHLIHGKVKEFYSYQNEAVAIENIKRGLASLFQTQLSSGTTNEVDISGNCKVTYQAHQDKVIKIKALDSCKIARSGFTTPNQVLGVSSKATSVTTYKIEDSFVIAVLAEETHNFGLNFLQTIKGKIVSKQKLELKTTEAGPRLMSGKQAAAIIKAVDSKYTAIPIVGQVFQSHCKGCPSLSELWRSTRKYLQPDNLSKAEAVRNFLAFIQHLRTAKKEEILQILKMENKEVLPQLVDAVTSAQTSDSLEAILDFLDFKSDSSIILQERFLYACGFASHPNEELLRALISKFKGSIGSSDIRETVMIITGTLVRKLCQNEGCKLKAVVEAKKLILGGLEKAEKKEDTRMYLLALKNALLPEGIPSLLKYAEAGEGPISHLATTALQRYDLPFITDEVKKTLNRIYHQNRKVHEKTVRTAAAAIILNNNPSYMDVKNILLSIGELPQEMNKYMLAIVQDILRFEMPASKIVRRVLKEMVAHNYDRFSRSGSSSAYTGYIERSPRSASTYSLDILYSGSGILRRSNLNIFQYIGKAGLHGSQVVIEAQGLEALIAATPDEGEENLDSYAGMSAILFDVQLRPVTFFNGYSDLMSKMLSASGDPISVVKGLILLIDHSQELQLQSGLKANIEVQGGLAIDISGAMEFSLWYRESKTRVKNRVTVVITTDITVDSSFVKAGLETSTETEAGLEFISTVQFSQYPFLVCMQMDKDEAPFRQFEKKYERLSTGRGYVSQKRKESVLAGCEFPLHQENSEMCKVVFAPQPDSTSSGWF
Sequence of human MTP (P07237 18-508 partner): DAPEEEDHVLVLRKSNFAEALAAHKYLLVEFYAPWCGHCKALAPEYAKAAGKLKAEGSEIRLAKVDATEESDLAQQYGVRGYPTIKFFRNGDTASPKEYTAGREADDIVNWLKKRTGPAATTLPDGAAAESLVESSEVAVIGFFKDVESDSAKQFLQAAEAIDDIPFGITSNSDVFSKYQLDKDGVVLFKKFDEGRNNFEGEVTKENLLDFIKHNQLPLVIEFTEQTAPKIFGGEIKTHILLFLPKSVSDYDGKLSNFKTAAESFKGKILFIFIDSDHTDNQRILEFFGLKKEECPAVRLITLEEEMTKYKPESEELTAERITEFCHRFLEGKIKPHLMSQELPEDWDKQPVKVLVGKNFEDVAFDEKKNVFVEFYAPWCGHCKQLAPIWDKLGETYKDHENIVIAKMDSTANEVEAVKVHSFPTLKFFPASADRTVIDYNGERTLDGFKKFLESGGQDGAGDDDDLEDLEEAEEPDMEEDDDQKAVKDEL

SMILES	melting point [°C]	IC50 [1] [nM]
CC(=O)C(c1ccc(F)cc1)N1CCN(c2ccc(NC(=O)c3ccccc3-c3ccc(C(F)(F)F)cc3)cc2)CC1 (stereo not drawn) [Example 7, 4′-trifluoromethyl-biphenyl-2-carboxylic acid [4-(4-(4-fluoro-α-acetyl-benzyl)-piperazin-1-yl)-phenyl]-amide]	200 to 202	–
O=C(Nc1ccc(N2CCN(C(C(=O)c3ccccc3)c3ccccc3)CC2)cc1)c1ccccc1-c1ccc(C(F)(F)F)cc1 (stereo not drawn) [Example 8, 4′-Trifluoromethyl-biphenyl-2-carboxylic acid [4-(4-(α-benzoyl-benzyl)-piperazin-1-yl)-phenyl]-amide]	165	40
O=C(Nc1ccc(N2CCN(C(c3ccccc3)c3noc(-c4ccccc4)n3)CC2)cc1)c1ccccc1-c1ccc(C(F)(F)F)cc1 (stereo not drawn) [Example 9, 4′-Trifluoromethyl-biphenyl-2-carboxylic acid [4-(4-(α(5-phenyl-[1,2,4]oxadiazol-3-yl)-benzyl)-piperazin-1-yl)-phenyl]-amide]	–	5.6
O=C(Nc1ccc(N2CCN(C(Cn3cccn3)c3ccccc3)CC2)cc1)c1ccccc1-c1ccc(C(F)(F)F)cc1 (stereo not drawn) [Example 10, 4′-Trifluoromethyl-biphenyl-2-carboxylic acid [4-(4-(α-((pyrazol-1-yl)-methyl)-benzyl)-piperazin-1-yl)-phenyl]-amide]	–	157
COC(=O)C(c1ccccc1)N1CCN(c2ccc(NC(=O)c3ccccc3-c3ccc(C(F)(F)F)cc3)cc2)CC1 (stereo not drawn) [Example 11, 4′-Trifluoromethyl-biphenyl-2-carboxylic acid [4-(4-(α-(methoxcyarbonyl)-benzyl)-piperazin-1-yl)-phenyl]-amide]	130 to 135	3.2
O=C(Nc1ccc(N2CCN(C(C(=O)NCc3ccccn3)c3ccccc3)CC2)cc1)c1ccccc1-c1ccc(C(F)(F)F)cc1 (stereo not drawn) [Example 14, 4′-Trifluoromethyl-biphenyl-2-carboxylic acid [4-(4-(α-((pyridin-2-yl-methyl)-aminocarbonyl)-benzyl)-piperazin-1-yl)-phenyl]-amide]	139 to 141	3

Other lines, results leading:

melting point [°C]	IC50 [1] [nM]	SMILES
194 to 196	–	CC(c1ccccc1)N1CCN(c2ccc(NC(=O)c3ccccc3-c3ccc(C(F)(F)F)cc3)cc2)CC1 (stereo not drawn) [Example 1, 4′-Trifluoromethyl-biphenyl-2-carboxylic acid [4-(4-(α-methyl-benzyl)-piperazin-1-yl)-phenyl]-amide]
192 to 194	1	Cc1ccc(C(=O)Nc2ccc(N3CCN(C(C)c4cccc(C#N)c4)CC3)cc2)c(-c2ccc(C(F)(F)F)cc2)c1 (stereo not drawn) [Example 2, 5-Methyl-4′-trifluoromethyl-biphenyl-2-carboxylic acid [4-(4-(3-cyano-α-methyl-benzyl)-piperazin-1-yl)-phenyl]-amide]
158 to 160	–	CC(c1cccc(C(F)(F)F)c1)N1CCN(c2ccc(NC(=O)c3ccccc3-c3ccc(C(F)(F)F)cc3)cc2)CC1 (stereo not drawn) [Example 4, 4′-Trifluoromethyl-biphenyl-2-carboxylic acid [4-(4-(3-trifluoromethyl-α-methyl-benzyl)-piperazin-1-yl)-phenyl]-amide]
204	–	N#CC(c1ccccc1)N1CCN(c2ccc(NC(=O)c3ccccc3-c3ccc(C(F)(F)F)cc3)cc2)CC1 (stereo not drawn) [Example 5, 4′-Trifluoromethyl-biphenyl-2-carboxylic acid [4-(4-(α-cyano-benzyl)-piperazin-1-yl)-phenyl]-amide]
202 to 203	–	N#Cc1cccc(C(c2ccc[nH]2)N2CCN(c3ccc(NC(=O)c4ccccc4-c4ccc(C(F)(F)F)cc4)cc3)CC2)c1 (stereo not drawn) [Example 17, 4′-Trifluoromethyl-biphenyl-2-carboxylic acid [4-(4-(3-cyano-α-(pyrrol-2-yl)-benzyl)-piperazin-1-yl)-phenyl]-amide]
